Read-outs that look alike come from different tables or passages of the source.
What was measured:
5-LOX [1] = molecular target: T1, 5-LOX (Homo sapiens, UniProt P09917); experiment: 5-LOX product formation in activated PMNL; conditions: for remaining activity at 3 µM / remaining activity at 1 µM: PMNL; for remaining activity at 1 µM: read-out: 5-LOX PMNL residual activity at 1 μM (cells marked b);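 on all read-outs here: freshly isolated human PMNL in PBS pH 7.4 plus glucose, preincubated 10 min at 37 °C with compound, 5-LOX products (all-trans LTB4 isomers, 5-HETE) quantified by RP-HPLC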
T1 sequence (P09917 1-674): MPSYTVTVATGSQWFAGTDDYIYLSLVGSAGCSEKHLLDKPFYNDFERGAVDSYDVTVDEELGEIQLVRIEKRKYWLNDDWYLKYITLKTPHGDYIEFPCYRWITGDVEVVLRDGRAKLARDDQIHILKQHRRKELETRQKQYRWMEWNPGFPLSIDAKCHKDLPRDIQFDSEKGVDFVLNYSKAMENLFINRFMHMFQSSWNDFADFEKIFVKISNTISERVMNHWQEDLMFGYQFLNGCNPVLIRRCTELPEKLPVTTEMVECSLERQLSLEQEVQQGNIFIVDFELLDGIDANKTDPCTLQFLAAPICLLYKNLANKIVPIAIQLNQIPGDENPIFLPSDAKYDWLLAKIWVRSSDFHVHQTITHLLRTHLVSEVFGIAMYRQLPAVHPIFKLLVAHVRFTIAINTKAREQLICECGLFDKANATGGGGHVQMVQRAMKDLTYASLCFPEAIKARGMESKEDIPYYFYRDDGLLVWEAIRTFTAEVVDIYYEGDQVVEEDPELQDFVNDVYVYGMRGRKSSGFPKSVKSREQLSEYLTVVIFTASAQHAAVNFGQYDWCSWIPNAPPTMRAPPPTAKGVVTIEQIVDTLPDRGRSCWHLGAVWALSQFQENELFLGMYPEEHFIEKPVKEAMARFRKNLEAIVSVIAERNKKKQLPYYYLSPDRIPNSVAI

5-LOX [2] = molecular target: T1, 5-LOX; parameters: made in house; host or cells: E. coli Bl21 (DE3); conditions: supplementary csv; # published in ref Pein et al.4; read-out: IC50 (5-LOX enzyme); cited from earlier work
5-LOX [3] = molecular target: T1, 5-LOX; experiment: Cell-free 5-LOX activity (isolated human recombinant enzyme)
5-LOX [4] = molecular target: T1, 5-LOX; conditions: supplementary csv; # published in ref Pein et al.4; read-out: IC50 (5-LOX PMNL); cited from earlier work
[5] = read-out: 5-LOX PMNL residual activity at 3 µM (Table S1)
[6] = read-out: 5-LOX enzyme residual activity at 1 µM (Table S1)
[7] = read-out: 5-LOX PMNL residual activity at 3 μM
[8] = read-out: 5-LOX PMNL IC50, 5-LOX product formation in activated PMNL, mean ± SEM
[9] = read-out: 5-LOX enzyme IC50, isolated human 5-LOX, cell-free, mean ± SEM
[10] = read-out: 5-LOX enzyme residual activity at 1 μM

Compound	remaining activity at 3 µM (5-LOX [1]; [5]) [%]	IC50 (5-LOX [2]) [µM]	remaining activity at 1 µM (5-LOX [3]; [6]) [%]	IC50 (5-LOX [4]) [µM]	remaining activity at 3 µM (5-LOX [1]; [7]) [%]	IC50 (5-LOX [1]; [8]) [µM]	IC50 (5-LOX [3]; [9]) [µM]	remaining activity at 1 µM (5-LOX [3]; [10]) [%]	IC50 (5-LOX [1]) [µM]	IC50 (5-LOX [3]) [µM]	remaining activity at 1 µM (5-LOX [1]) [%]
CC(C)=CCC/C(C)=C/CC/C(C)=C/CC[C@]1(C)CCc2c(C)c(O)cc(C)c2O1 [Compound 6b]	41.4 ± 8	0.19 ± 0.03	6.4 ± 3.2	2.11 ± 0.36	–	–	–	–	–	–	–
C/C(=C\CC/C(C)=C/CC[C@]1(C)CCc2c(C=O)c(O)cc(C)c2O1)CCC=C(CO)CO [Compound 34]	–	–	–	–	6.1 ± 0.1	1.81 ± 0.32	0.17 ± 0.06	13.8 ± 4.4	–	–	–
Cc1cc(O)cc2c1O[C@](C)(CCC=C(CO)CO)CC2 [Compound 29, (R)-2-(3-(6-Hydroxy-2,8-dimethylchroman-2-yl)propylidene)propane-1,3-diol]	–	–	–	–	86.4 ± 0.8	> 3	> 1	79.7 ± 3.5	–	–	–
CC(C)=CCC/C(C)=C/CC/C(C)=C/CC[C@]1(C)CCc2c(C=O)c(O)cc(C)c2O1 [Compound 7]	87.1 ± 8	–	74.5 ± 4.3	–	–	–	–	–	> 3	> 1	–
C/C(=C\CC/C(C)=C/CC[C@]1(C)CCc2cc(OC(=O)CCC(=O)O)cc(C)c2O1)CCC=C(CO)CO [Compound 31, 4-(((R)-2-((3E,7E)-13-Hydroxy-12-(hydroxymethyl)-4,8-dimethyltrideca-3,7,11-trien-1-yl)-2,8-dimethylchroman-6-yl)oxy)-4-oxobutanoic Acid]	–	–	–	–	–	0.45 ± 0.1	0.09 ± 0.03	1.1 ± 0.6	–	–	26.4 ± 6.7
C/C(=C\CC/C(C)=C/CC[C@]1(C)CCc2cc(O)cc(C)c2O1)CCC=C(CO)CO [Compound 27d, δ-amplexichromanol]	–	–	–	–	–	0.43 ± 0.04	–	1.8 ± 0.9	–	–	14.7 ± 1.6
Cc1cc(O)c(C(=O)O)c2c1O[C@](C)(CCC[C@H](C)CCC[C@H](C)CCCC(C)C)CC2 [Compound 5]	80.8 ± 0.6	–	54.6 ± 5.8	–	–	–	–	–	> 3	> 1	–
C/C(=C\CC/C(C)=C/CC[C@]1(C)CCc2c(CN(C)C)c(O)c(CN(C)C)c(C)c2O1)CC/C=C(\C)C(=O)O [Compound 24]	–	–	–	–	82.1 ± 24.1	> 3	> 1	95.2 ± 7.9	–	–	–
CC(C)=CCC/C(C)=C/CC/C(C)=C/CC[C@]1(C)CCc2c(C=O)c(O)c(Br)c(C)c2O1 [Compound 8]	79.2 ± 16.7	–	59 ± 5.9	–	–	–	–	–	> 3	> 1	–
C/C(=C\CC[C@]1(C)CCc2cc(O)cc(C)c2O1)CC/C=C(\C)CCC(=O)O [Compound 15b, (4E,8E)-11-((R)-6-Hydroxy-2,8-dimethylchroman-2-yl)-4,8-dimethylundeca-4,8-dienoic Acid]	–	–	–	–	32 ± 9.8	2.19 ± 0.4	0.47 ± 0.14	28.8 ± 5.2	–	–	–
C/C(=C\CC[C@]1(C)CCc2cc(O)cc(C)c2O1)C(=O)O [Compound 18, (R,E)-5-(6-Hydroxy-2,8-dimethylchroman-2-yl)-2-methylpent-2-enoic Acid]	–	–	–	–	88.8 ± 6.4	> 3	> 1	56.4 ± 18.3	–	–	–
COC(=O)C(C)CCC/C(C)=C/CC/C(C)=C/CC[C@]1(C)CCc2cc(O)cc(C)c2O1 (stereo partly drawn) [Compound 21, (6E,10E)-Methyl-13-((R)-6-hydroxy-2,8-dimethylchroman-2-yl)-2,6,10-trimethyltrideca-6,10-dienoate]	–	–	–	–	14.1 ± 6	1.14 ± 0.39	0.17 ± 0.01	5.8 ± 1.7	–	–	–
Cc1cc(O)c(C=O)c2c1O[C@](C)(CCC[C@H](C)CCC[C@H](C)CCCC(C)C)CC2 [Compound 3]	92.2 ± 6.3	–	94.6 ± 3.5	–	–	–	–	–	> 3	> 1	–

— PMC8365602 (Journal of Medicinal Chemistry, 2021)
